Results reported in patent US12194033B2, “Glycine receptor modulators and methods of use” (University of Pittsburgh—Of the Commonwealth System of …, priority 2017, dated 2025).

Key:
human α3GlyR = molecular target: T1, human α3GlyR (Homo sapiens, UniProt O75311); test: In vitro functional electrophysiology in Xenopus laevis oocytes; assay type: cell-based
T1 construct: expressed in transfected cells; host or cells: Xenopus laevis oocytes
T1 sequence (O75311 34-464): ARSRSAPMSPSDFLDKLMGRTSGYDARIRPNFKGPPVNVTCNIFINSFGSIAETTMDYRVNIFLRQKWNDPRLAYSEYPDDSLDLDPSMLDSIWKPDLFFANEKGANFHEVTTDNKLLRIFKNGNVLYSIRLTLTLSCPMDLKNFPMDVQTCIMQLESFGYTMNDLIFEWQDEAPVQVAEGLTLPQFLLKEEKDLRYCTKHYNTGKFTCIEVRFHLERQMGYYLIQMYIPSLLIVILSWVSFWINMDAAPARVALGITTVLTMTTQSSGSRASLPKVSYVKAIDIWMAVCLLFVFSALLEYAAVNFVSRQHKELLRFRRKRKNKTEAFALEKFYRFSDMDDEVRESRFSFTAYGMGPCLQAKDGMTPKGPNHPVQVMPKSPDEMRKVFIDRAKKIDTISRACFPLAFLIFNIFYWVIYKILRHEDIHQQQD
Description: I/Io is calculated as the ratio of the current measured in the presence (I) and absence (Io) of compound 1 or THC at the indicated concentrations. Error bars designate the standard error of the mean (n≥4).
FIGS. 2A and 2B are bar graphs showing the effect of compound 1 on modulation of human glycine receptor subtypes (α1GlyR, α3GlyR, α1βGlyR, and α3βGlyR) expressed in Xenopus laevis oocytes activated by 2% (FIG. 2A) and 20% (FIG. 2B) maximal effective concentration of glycine. I/Io was calculated as the ratio of the current measured in the presence (I) and absence (Io) of 10 μM compound 1. Error bars designate the standard error of the mean (n≥4).
The compounds disclosed in Table 1 were assessed for in vitro modulation of human GlyRs. […] The assessed compounds were compounds 1 (3A), 2 (3B), 3 (3C), 4 (3D), 5 (3E), 6 (3F), 7 (3G), and 8 (3H). I/Io was calculated as the ratio of the current measured in the presence (I) and absence (Io) of 10 μM of the indicated compound. […]
MJPY1 potentiates α3GlyR through binding to the THC-binding site near S296 in the transmembrane domain (TMD). […] Data were recorded at EC2 agonist for the indicated channels and are reported as the ratio of currents in the presence (I) and absence (Io) of 10 μM compound 1 (MJPY1). […]

DOR = DOR (Homo sapiens, UniProt P41143); test: Radioligand binding assay, off-target profiling; details: 10 M MJPY1, mean, n = 4
[1] = system: inflammatory markers in the liver and spleen of mice; test: In vivo immune responses by flow cytometry; details: 2 mg/kg, ~16 hours prior to sacrifice
Description: Toxicity was evaluated using in vitro Ames test and in vivo immune responses flow cytometry. Compound 1 (MJPY1) at each concentration was tested in three 48-well plates using the TA100 strain Salmonella typhimurium and S9 rat liver extract for base-pair substitution mutations. Error bars represent SEM. Significance (p<0.05) was evaluated compared to the control (0 μM) using one-way ANOVA with the Bonferroni post-hoc test. FIGS. 15A and 15B show flow cytometry evaluation of common inflammatory markers in the liver and spleen of mice in response to compound 1 (MJPY1) treatment. Mice received either 2 mg/kg of MJPY1 (right) or vehicle (left) ˜16 hours prior to sacrifice and tissue collection. Significant differences between the treatment and control were observed only for decreased CD11b+ in the liver of mice treated with MJPY1 (p<0.001). […] Results were analyzed by one-way ANOVA with Bonferroni post-hoc test.

Chain of DOR (P41143 whole entry): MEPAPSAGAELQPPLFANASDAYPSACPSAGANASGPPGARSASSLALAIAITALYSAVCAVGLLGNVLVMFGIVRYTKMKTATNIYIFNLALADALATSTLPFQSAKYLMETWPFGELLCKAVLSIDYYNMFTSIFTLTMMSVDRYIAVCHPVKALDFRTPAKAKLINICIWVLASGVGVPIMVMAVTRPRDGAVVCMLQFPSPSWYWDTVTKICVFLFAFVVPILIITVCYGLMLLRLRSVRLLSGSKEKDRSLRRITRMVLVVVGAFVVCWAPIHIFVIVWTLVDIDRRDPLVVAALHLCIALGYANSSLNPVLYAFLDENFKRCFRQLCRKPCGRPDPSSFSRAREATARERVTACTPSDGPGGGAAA

Compound: NC(=O)c1cccc(CNC(=O)c2ccc3c4c(cccc24)CC3)c1 [compound 1, N-[(3-carbamoylphenyl)-methyl]-1,2-dihydroacenaphthylene-5-carboxamide]
- potentiation of α3GlyR (I/Io) (human α3GlyR; EC2 agonist, 10 μM compound): potentiates
- modulation of human GlyRs (I/Io) (human α3GlyR; Xenopus laevis oocytes, 2% maximal effective concentration of glycine): modulated
- % Inhibition DOR (DOR): 7.1%
- overall immune response to treatment ([1]; liver and spleen): minimal immune response
- CD11b+ in the liver vs vehicle ([1]; p<0.001): decreased
